Assay [1] deals with HeLa cells. The assay is described as follows: 3H-thymidine incorporation (cell proliferation), HeLa cells. The assay is classed as cell-based, human. To be noted: APF 0.25-250 nM, 48 hours, serum starvation. The method, then:
Cell proliferation was measured by 3H-thymidine incorporation into ZDHHC2 siRNA-treated HeLa cells. Briefly, electroporated cells that received ZDHHC2 or control nonsense siRNA were plated into 96 well culture plates and incubated at 37° C. in a 5% CO2 atmosphere for 96 hours. Purified lyophilized synthetic APF was re-suspended in acetonitrile/distilled water (1:1), diluted in serum-free MEM (containing only glutamine and antibiotics/antimycotics), and applied to HeLa cells; cell controls received acetonitrile/distilled water diluted in serum-free MEM alone. Cells were then incubated for an additional 48 hours. The cell contents were harvested and methanol-fixed onto glass fiber filter paper, and the amount of radioactivity incorporated determined. Significant inhibition of ^3H-thymidine incorporation was defined as a mean decrease in counts per minute of greater than 2 standard deviations from the mean of control cells for each plate.
siRNA—Double-stranded siRNA targeting ZDHHC2 (available from GenBank/EMBL/DDBJ under accession no. NM_016353) was purchased from Dharmacon (ON-TARGET plus). […]
^3H-Thymidine Incorporation—Cell proliferation was measured by 3H-thymidine incorporation into the DNA of HeLa or NB epithelial cells. […] The cell contents were harvested and methanol-fixed onto glass fiber filter paper, and the amount of radioactivity incorporated determined. […]

Assay [2] relates to CKAP4/p63. The assay is described as follows: Immunofluorescent localization of CKAP4/p63 in HeLa cells. The class given is cell-based, human. To be noted: APF 20 nM, 48 hours. The method, then: Double stranded siRNA targeting ZDHHC2 was purchased from Dharmacon. HeLa cells or cells explanted from IC patients (IC cells) were trypsinized for 10 minutes at room temperature, centrifuged in growth medium (MEM with 10% heat inactivated FBS, 1% antibiotic/antimycotics solution, and 1% L glutamine), and the cell pellet was resuspended in serum-free medium at a density of 1×10^4 cells/ml. One mL of the cell suspension was then transferred to a sterile 2 mm cuvette with 20 μM siRNA, and electroporated at 160 V/500 μF capacitance using a BioRad Gene Pulser Xcell. HeLa cells were then plated onto a 96 well plate for the thymidine incorporation assay, and both HeLa and IC cells were plated onto an 8 well Lab-Tek tissue culture slide for confocal microscopy.
For confocal microscopy, after 96 hours of incubation the medium was removed from the wells and cells were fixed using ethanol/acetone (1:1) for 15 min at room temperature, washed three times with 1×PBS, and incubated with mouse monoclonal anti-CKAP4/p63 antibodies (“anti-CLIMP-63”, clone G1/296; Alexis Biochemicals) in PBS, for 2 hrs at 37° C. Cells were then washed three times with PBS and further incubated with fluorescein isothiocyanate (FITC)-labeled secondary antibody diluted in PBS (goat anti-Mouse IgG 1:2000; Zymed) for 2 hrs at 37° C. […]

Assay [3] deals with E-cadherin mRNA. The assay is described as follows: Quantitative real-time PCR of E-cadherin mRNA in NB cells. The assay is classed as cell-based, human. The settings on record: 2.5 nM APF alone or with nonsense siRNA, 48 hours. The method, then: (§1) RNA was assessed by visualization of the 28S/18S ribosomal RNA ratio on a 1% agarose gel, and total RNA concentration determined by measuring the absorbance of each sample at 260 nm and 280 nm using a Gene Quant RNA/DNA Calculator (Pharmacia Biotech). Quantitative real-time PCR for gene expression was performed using Quantitect Primers (Qiagen), SYBR Green RT-PCR kit reagents (Qiagen), and a Roche System II Light-Cycler (software version 3.5). Samples were tested in triplicate runs, and specific mRNA levels quantified and compared to mRNA levels for β-actin using real-time PCR analysis software from Applied Biosystems.

Assay [4] concerns vimentin. The assay is described as follows: Western blot of vimentin protein in HeLa cells. The class given is cell-based, human. To be noted: APF 20 nM, 48 hours. How it is done:
Western Blot Analysis—Cells were lysed in ice-cold RIPA buffer containing protease inhibitors (Pierce), sonicated, and centrifuged for 15 minutes at 4° C. The supernatant protein concentration was measured using a Folin reagent-based protein assay kit (BioRad). Proteins were separated by electrophoresis using 4-12% NuPAGE Novex Bis-Tris polyacrylamide gels in MOPS running buffer (Invitrogen) and then transferred to nitrocellulose. Membranes were blocked for 2 hours at room temperature in TBST buffer (Tris-buffered saline, pH 7.4, with 0.1% Tween 20) containing 5% nonfat milk and incubated with specific antibodies against vimentin (diluted 1:2000; BD Pharmingen) or ZO-1 (diluted 1:125; Zymed) overnight at 4° C. The membranes were subsequently washed with TBST, incubated for 1 hour at room temperature in HRP-conjugated goat anti-mouse (diluted 1:4000, Santa Cruz Biotechnology) or goat anti-rabbit (diluted 1:10000; Pierce) secondary antibodies, and developed by enhanced chemiluminescence (Pierce). To assess equal loading of protein, the membranes were stripped and reprobed for β-actin (diluted 1:5000; Sigma). […] The protein bands of interest were quantified using ImageJ and the integrated signal densities normalized first to β-actin (the loading control) and subsequently expressed in terms of the fractional abundance relative to untreated control cells.
Background: Immunoblotting shows a protein as a band on a membrane.

Assay [5] relates to vimentin mRNA. The assay is described as follows: Quantitative real-time PCR of vimentin mRNA in NB cells. The assay is classed as cell-based, human. The settings on record: 2.5 nM APF alone or with nonsense siRNA, 48 hours, normalized to β-actin. The method, then:
as §1
For orientation: Quantitative PCR measures a nucleic acid by following its amplification.

The test system of assay [6] is ZO-1 mRNA. The assay is described as follows: Quantitative real-time PCR of ZO-1 mRNA in NB cells. To be noted: 2.5 nM APF alone or with nonsense siRNA, 48 hours, normalized to β-actin. The assay is classed as cell-based, human. How it is done: as §1
The subject of assay [7] is bladder epithelial cell. The settings on record: cited from earlier work.
Assay [8] relates to normal primary bladder (NB) epithelial cells. The assay is described as follows: 3H-thymidine incorporation (cell proliferation), NB epithelial cells. The assay is classed as cell-based, human. The settings on record: APF 0.25-250 nM, 48 hours, serum starvation. How it is done: Normal primary bladder (NB) epithelial cells were isolated from patients as previously described (Conrads et al., 2006; Keay et al., 2000; Keay et al., 2004; Keay et al., 1996). Cells were propagated in DMEM-F12 (Media-Tech) with 10% heat inactivated FBS, 1% antibiotic/antimycotic solution, 1% L-glutamine, 0.25 U/ml insulin (Sigma), and 5 ng/ml human epidermal growth factor (R & D Systems) at 37° C. in a 5% CO2 atmosphere, and characterized by binding of AE-1/AE-3 pancytokeratin antibodies (Signet) as previously described (Keay et al., 1996; Keay et al., 2004).
^3H-Thymidine Incorporation—Cell proliferation was measured by 3H-thymidine incorporation into the DNA of HeLa or NB epithelial cells. […] Cells were then incubated at 37° C. in a 5% CO2 atmosphere for 48 hours. The cell contents were harvested and methanol-fixed onto glass fiber filter paper, and the amount of radioactivity incorporated determined. Significant inhibition of ^3H-thymidine incorporation was defined as a mean decrease in counts per minute of greater than 2 standard deviations from the mean of control cells for each plate.
On the technique in general: Incorporation of labelled thymidine or its analogues reports DNA synthesis.

Turning to “Sialoglycopeptide: sialic acid α-2,3 galactose β1-3-N-acetylgalactosamine α-O-linked to N-terminal threonine of Frizzled 8 nonapeptide (TVPAAVVVA) [APF, antiproliferative factor]”, the “inhibition of HeLa cell proliferation (3H-thymidine incorporation)” value in assay [1] was “concentration dependent manner”. In addition, in assay [2], the “CKAP4 localization after APF treatment” value was “translocated to the nucleus and nucleolus”. The “change of E-cadherin mRNA levels” value in assay [3] is “dramatically increased”. The “expression of vimentin following APF treatment” value in assay [4] was “reduced”. Also, in assay [5], the “reduction of vimentin mRNA levels” value is on record as approximately 97%. Further, the “reduction of ZO-1 mRNA levels” value in assay [6] is on record as approximately 93%. The “EC50 (potency of APF)” value in assay [7] is reported as “picomolar range”. Besides, in assay [8], the “inhibition of NB cell proliferation (3H-thymidine incorporation)” value is listed as “concentration dependent manner”.

The record behind these values is patent US8404655B2, “Inhibition of palmitoyl acyl transferase expression and/or activity for the regulation of antiproliferative factor activity” (University of Florida Research Foundation, Inc., priority 2007, dated 2013).
